Reference: paper PMC9227013, “Synthesis, Anticancer Potential and Comprehensive Toxicity Studies of Novel Brominated Derivatives of Bacterial Biopigment Prodigiosin from Serratia marcescens ATCC 27117” (Molecules, 2022)
Values after ≈ are worked out from the molar mass of the structure shown.

Legend:
A549 = settings: cited from earlier work
[1] = test system: Caenorhabditis elegans AU37; test: Roundworm (C. elegans) survival assay; type: in vivo; settings: 48 h
Procedure: Nematode roundworms (Caenorhabditis elegans AU37) were obtained from the Caenorhabditis Genetics Center (CGC), University of Minnesota, Minneapolis, Minnesota, US. C. elegans AU37 (glp-4; sek-1) was propagated under standard conditions, synchronized by hypochlorite bleaching, and cultured on nematode growth medium using E. coli OP50 as a food source, as described previously. The C. elegans survival assay was carried out following the standard procedure with some modifications. Briefly, synchronized worms (L4 stage) were suspended in a medium containing 95% M9 buffer (3.0 g of KH2PO4, 6.0 g of Na2HPO4, 5.0 g of NaCl, and 1 mL of 1 M MgSO4∙7H2O in 1 L of water), 5% LB broth, and 10 μg/mL of cholesterol (Sigma-Aldrich, Munich, Germany). The experiment was carried out in 96-well flat-bottomed microtiter plates (Sarstedt, Nümbrecht, Germany) in the final volume of 100 μL per well. 25 μL of this suspension of nematodes (25–35 nematodes) were transferred to the wells of a 96-well microtiter plate, where 50 μL of the medium was previously added. Next, 25 μL of the solvent control (1% DMSO) or 25 μL of the concentrated tested compound solution was added to the test wells. Final concentrations of the compounds were 50.00, 25.00, 12.50, 6.25, 3.13, and 1.57 µg/mL. Subsequently, the plates were incubated at 25 °C for 2 days. The fraction of dead worms was determined after 48 h by counting the number of dead worms and the total number of worms in each well, using a Carl Zeiss™ Stemi 508 Stereomicroscope (Zeiss Group, Jena, Germany) at 40× magnification. The compounds were tested three times in each assay and each assay was repeated two times (n = 6). As a negative control experiment, nematodes were exposed to the medium containing 1% DMSO.

melanoma cell line A375 = test system: melanoma cell line A375; set-up: method as in PMID 16736886; settings: cited from earlier work
MRC-5 cells = test: Annexin V flow cytometry, early apoptosis; type: cell-based; settings: MRC-5, compound at IC50 concentration, 24 h
Procedure: The eBioscience^TM Annexin V Apoptosis Detection Kit APC (Invitrogen by Thermo Fischer Scientific, Waltham, MA, USA) was used for the assessment of cellular integrity and the externalization of phosphatidylserine. MRC-5 cells were plated in a 6-well flat-bottom plate at a concentration of 2.5 × 10^5 cells per well, grown for 24 h in a humidified atmosphere of 95% air and 5% CO2 at 37 °C in RPMI 1640 medium supplemented with 10% fetal bovine serum (FBS), 100 U/mL penicillin, and 100 μg/mL streptomycin (Gibco™ by Thermo Fischer Scientific CE, Waltham, MA, USA). Each tested compound was added to the cells at IC50 concentration, and the incubation continued for another 24 h under the same conditions. Upon incubation, cells were collected, washed once with Dulbecco’s Phosphate-Buffered Saline (Gibco™ by Thermo Fischer Scientific CE, Waltham, MA, USA), and stained with Annexin V FITC and propidium iodide (PI) under the manufacturer’s instructions. Briefly, MRC-5 cells were resuspended in 1 × Binding Buffer at 1–5 × 10^6 cells per mL and incubated with 5.00 µL Annexin V FITC for 15 min at room temperature in a final volume of 100 μL. […] Immediately after staining, cells were analyzed using a CyFlow Space Partec flow cytometer, with Partec FloMax software (Partec GmbH, Münster, Germany).

HCT116 (colon cancer) = test: MTT antiproliferative assay on HCT116 cells; type: cell-based; settings: for IC50: Homo sapiens
Procedure: (§1) Selected cell lines MRC-5 (lung fibroblasts), A549 (lung cancer), A375 (melanoma, skin cancer), MDA-MB-231 (breast cancer), and HCT116 (colon cancer) were obtained from ATCC, Manassas, US. Antiproliferative activities of PG and its Br derivatives were measured using the standard colorimetric MTT [3-(4,5-dimethylthiazol-2-yl)-2,5-diphenyltetrazolium bromide] assay. Briefly, cells were plated in a 96-well flat-bottom plate (Sarstedt, Nümbrecht, Germany) at a concentration of 1 × 10^4 cells per well, grown in a humidified atmosphere of 95% air and 5% CO2 at 37 °C, and maintained as monolayer cultures in RPMI 1640 medium supplemented with 10% fetal bovine serum (FBS), 100 U/mL penicillin, and 100 μg/mL streptomycin (all media components from Gibco™ by Thermo Fischer Scientific CE). Each tested compound was added to the cells at a concentration of 0.05–100.00 μg/mL, and the treatment lasted for 48 h. The MTT assay was performed two times in four replicates, and the results were presented as a percentage of the DMSO-treated control that was arbitrarily set to 100%. Plates were read using the Tecan Infinite 200 Pro multiplate reader (Tecan Group Ltd., Männendorf, Switzerland).
(§2) To assess the effect of the treatment duration, exposure of MRC-5 and HCT116 cells to PG and its Br derivatives was observed after 24 h, 48 h, and 72 h and measured using the MTT assay, as described above. MRC-5 and HCT-116 cells treated for 24 h were additionally analyzed using DM IL LED Inverted Microscope (Leica Microsystems, Mannheim, Germany) at 20× magnification.

[2] = test system: juveniles of Radopholus similis; settings: cited from earlier work
Heterodera schachtii J2 = settings: cited from earlier work
MRC-5 (lung fibroblasts) = test: MTT antiproliferative assay on MRC-5 cells; type: cell-based; settings: for IC50: Homo sapiens
Procedure: as §1, §2

[3] = test system: juvenile Meloidogyne incognita J2; set-up: method as in doi:10.3390/agronomy12010041; settings: cited from earlier work
C. elegans = settings: PG obtained from S. marcescens; cited from earlier work
[4] = test system: A549, A375, MDA-MB-231, and HCT116 cancer cell lines; test: MTT assay, whole cell line panel; type: cell-based; settings: 48 h, read-out: IC50 values range over the tested cancer cell lines
Procedure: as §1

Breast cancer MDA-MB-231 = settings: cited from earlier work
[5] = test system: A375 (melanoma, skin cancer); test: MTT antiproliferative assay on A375 cells; type: cell-based; settings: Homo sapiens, A-375, 48 h
Procedure: as §1

Meloidogyne javanica = settings: cited from earlier work
[6] = test system: zebrafish (Danio rerio) embryos; test: Zebrafish (D. rerio) embryotoxicity; type: in vivo
Procedure: Wild-type zebrafish (Danio rerio) strain was obtained from the commercial supplier Pet Center, Belgrade, Serbia. Zebrafish embryotoxicity assay was performed according to general rules of the OECD Guidelines for the testing of chemicals. The wild-type zebrafish (D. rerio) strain was kept under controlled environmental conditions (water temperature 28 °C, 14 h under the light and 10 h in the dark) and fed regularly three times a day with commercially dry flake food supplemented with Artemia nauplii (TetraMinTM flakes; Tetra Melle, Germany). Zebrafish embryos were produced by female and male adults mating in the ratio of 1:2. Obtained embryos were collected and washed from detritus and carefully handled. Only fertilized embryos were selected and distributed into 24-well plates (Sarstedt, Germany) containing 10 embryos per well. Each well contained exactly 1 mL of water for embryos (0.2 g/L of Instant Ocean® Salt in distilled water). For assessing lethal and developmental toxicity, embryos at the 6 and 20 h postfertilization (hpf) stages were treated with selected compounds at concentrations of 0.1–100 μg/mL (maximum DMSO concentration in the negative control was 1%) and incubated at 28 °C. Experiments were performed in triplicate, using 30 embryos for each concentration. For five days, the appearance of different morphophysiological parameters in embryo development was monitored, and dead embryos were counted and discarded every 24 h. On the fifth day, the embryos were anesthetized by the addition of 0.1% (w/v) tricaine solution (Sigma-Aldrich, St. Louis, Missouri, US), observed under a stereomicroscope (SMZ-143-N2GG, Motic, Germany) at 3.5× magnification, photographed, and killed by freezing at −20 °C for ≥24 h. All experiments involving zebrafish were performed in compliance with the European directive 2010/63/EU and the ethical guidelines of the Guide for Care and Use of Laboratory Animals of the Institute of Molecular Genetics and Genetic Engineering, University of Belgrade, Serbia.

[7] = test system: C. elegans first stage juveniles; settings: cited from earlier work
HCT116 colon cancer = test system: HCT116 colon cancer; set-up: method as in PMID 24247721; settings: HCT116, 72 h treatment; cited from earlier work
[8] = test system: HFF (human foreskin fibroblasts) cells; set-up: method as in PMID 24247721; settings: cited from earlier work
[9] = test system: 60-cell-line panel of the National Cancer Institute (NCI); settings: NCI 60-cell-line panel; cited from earlier work
A549 (lung cancer) = test: MTT antiproliferative assay on A549 cells; type: cell-based; settings: Homo sapiens, A549, 48 h
Procedure: as §1

[10] = test system: MDA-MB-231 (breast cancer); test: MTT antiproliferative assay on MDA-MB-231 cells; type: cell-based
Procedure: as §1

## CCCCCC1=CC(=Cc2[nH]c(-c3ccc[nH]3)cc2OC)N=C1C [PG, 4-Methoxy-5-[(5-methyl-4-pentyl-2H-pyrrol-2-ylidene)methyl]-1H,1'H-2,2'-bipyrrole]
A549
  anticancer activity against A549 (lower end of literature range): 0.03 µg/mL
  anticancer activity against A549 (upper end of literature range): 3.23 µg/mL
[1]; 1.57 µg/mL
  Survival rate: 100 ± 0.00%
[1]; 3.13 µg/mL
  Survival rate: 100 ± 0.00%
[1]; 6.25 µg/mL
  Survival rate: 100 ± 0.00%
[1]; 12.50 µg/mL
  Survival rate: 100 ± 0.00%
[1]; 25.00 µg/mL
  Survival rate: 100 ± 0.00%
[1]; 50.00 µg/mL
  Survival rate: 100 ± 0.00%
Melanoma cell line A375
  sensitivity of A375 to PG: 0.70 µg/mL
MRC-5 cells
  Annexin V Positive Cells: 20.3 ± 0.5%
HCT116 (colon cancer); HCT-116, 24 h
  IC50: 5 ± 0.06 µg/mL (≈ 15.5 µM)
HCT116 (colon cancer); HCT-116, 48 h
  IC50: 0.7 ± 0.02 µg/mL (≈ 2.16 µM)
HCT116 (colon cancer); HCT-116, 72 h
  IC50: 0.8 ± 0.02 µg/mL (≈ 2.47 µM)
HCT116 (colon cancer); MRC-5 vs colon cancer cells (HCT116), 48 h
  selectivity between healthy and cancer cell lines: 1.7
[2]
  LC50: 83 µg/mL (≈ 257 µM)
Heterodera schachtii J2
  Effectiveness: 4.30 µg/mL
MRC-5 (lung fibroblasts); MRC5, 24 h
  IC50: 1.8 ± 0.04 µg/mL (≈ 5.57 µM)
MRC-5 (lung fibroblasts); MRC5, 48 h
  IC50: 1.2 ± 0.04 µg/mL (≈ 3.71 µM)
MRC-5 (lung fibroblasts); MRC5, 72 h
  IC50: 0.7 ± 0.02 µg/mL (≈ 2.16 µM)
MRC-5 (lung fibroblasts); MRC-5
  fold lower IC50 of 72 h in comparison to 24 h exposure: 2.5 fold
[3]
  IC50: 0.2 mg/mL (≈ 618 µM)
C. elegans
  toxicological assessment: no significant toxic activity
[4]
  IC50: 0.62 to 1.3 µg/mL (≈ 1.92 to 4.02 µM)
Breast cancer MDA-MB-231
  sensitivity of MDA-MB-231 to PG (lower end of literature range): 0.02 µg/mL
  sensitivity of MDA-MB-231 to PG (upper end of literature range): 0.68 µg/mL
[5]
  IC50: 1.25 ± 0.04 µg/mL (≈ 3.86 µM)
Meloidogyne javanica
  LC50: 79 µg/mL (≈ 244 µM)
[6]; 10 µg/mL applied at 6 hpf
  death rate: 100%
[6]; 2.5 and 0.1 µg/mL, both at 6 hpf and 20 hpf
  effect on embryos: all the embryos survived, but developed into slightly smaller fish with microcephaly
[7]
  EC50: 0.04 µg/mL (≈ 0.124 µM)
HCT116 colon cancer
  IC50: 0.04 µg/mL (≈ 0.124 µM)
[8]; 0.36 µg/mL PG
  growth inhibition: 76.16%
[8]; 72 h of treatment
  IC50: 0.15 µg/mL (≈ 0.464 µM)
[9]
  average LC50: 0.68 µg/mL
A549 (lung cancer)
  IC50: 1.3 ± 0.02 µg/mL (≈ 4.02 µM)
[10]; Homo sapiens, MDA-MB-231, 48 h
  IC50: 0.62 ± 0.01 µg/mL (≈ 1.92 µM)
[10]; MRC-5 vs breast cancer cells (MDA-MB-231), 48 h
  selectivity between healthy and cancer cell lines: 1.9
